Test results as given in US8546389B2 (priority 2010, dated 2013).
Like-named read-outs stand apart in the source and are kept apart here.

Legend:
[1] = tested on: subgenomic genotype 1a replicon cell line; assay: HCV replicon assay, genotype 1a; format: cell-based, HCV genotype 1a; conditions: Hepatitis C virus
Experimental: (§1) A genotype 1b (Con 1) subgenomic replicon cell line based on Blight et al., Science 2000 290: 1972-1974, modified to express a Renilla luciferase reporter gene was used to assess antiviral activity of test compounds. Cell cultures were maintained in a sub-confluent state in DMEM with glutamine, 10% heat-inactivated foetal bovine serum (FBS) and G418 (Geneticin®).
(§2) For assay, cells were seeded at a density of 7000 cells/well into 96 well tissue culture trays in culture media lacking G418. Compounds were tested in a three fold dilution series, for example starting from 50 uM. After 72 hours incubation at 37° C. and 5% CO2, Renilla luciferase activity was quantified via the Promega Renilla Luciferase or Renilla-Glo™ Luciferase Assay Systems (Promega corporation. The same method was employed for replicon assays using subgenomic genotype 1a and 2a replicon cell lines with a seeding cell density of 5000 cells/well for the 2a cell lines.
(§3) The compound concentration that reduced luciferase activity by 50% (EC50) was calculated using non-linear regression.

[2] = tested on: subgenomic genotype 2a replicon cell line; assay: HCV replicon assay, genotype 2a; format: cell-based, HCV genotype 2a; conditions: Hepatitis C virus
Experimental: as §1, §2, §3

[3] = target: genotype 3a (VRL-69) NS5bΔ21 polymerase (Hepatitis C virus genotype 3a, UniProt Q81258); assay: HCV polymerase inhibition assay, genotype 3a; format: biochemical, HCV genotype 3a (VRL-69); conditions: genotype 3a; read-out: 3a NS5b polymerase IC50
Experimental: HCV polymerase reactions were carried out using a modified method of Howe et al., Antimicrobial Agents and Chemotherapy 2004 48(12): 4813-4821. Reactions contained a final concentration of, 0.5% DMSO, 50 nM, 1b (BK) NS5bΔ21, 20 mM Tris-HCl pH 7.5, 5 mM MgCl2, 5 mM MnCl2, 3 mM DTT, 0.05% BSA, 0.2 U/μL RNasin, 10 μg/mL Poly(rC) template, GTP (at Km) and 0.05 μCi/μL ^33P-GTP in a total reaction volume of 50 μL. Compounds were tested in a three fold dilution series, for example starting from 50 μM. Reactions were initiated with the addition of GTP and terminated after 1 hour with 50 μL ice cold 0.2 M EDTA. Terminated reactions were transferred to DEAE 96-well filter plates, unincorporated nucleotides washed from the filters and 50 μL scintillation fluid added prior to reading on a scintillation counter. Similarly, a genotype 3a (VRL-69) NS5bΔ21 polymerase enzyme assay was conducted using essentially the same method.
The compound concentration that reduced ^33P-GTP incorporation by 50% (IC50) was calculated using non-linear regression.

1b (BK) NS5bΔ21 = 1b (BK) NS5bΔ21 (Hepatitis C virus genotype 1b (isolate BK) (HCV), UniProt P26663); assay: HCV polymerase inhibition assay, genotype 1b; format: biochemical, HCV genotype 1b (BK)
Outline: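 NS5bΔ21 (50 nM) in Tris-HCl pH 7.5 with Mg2+/Mn2+, DTT, BSA, 0.5% DMSO, poly(rC) template, GTP at Km and ^33P-GTP; 3-fold compound dilutions. GTP-started reactions stopped with EDTA after 1 h; incorporation read by DEAE filter scintillation counting. IC50 by non-linear regression; 3a enzyme run the same way.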

[4] = tested on: genotype 1b (Con 1) subgenomic replicon cell line; assay: HCV replicon assay, genotype 1b (Renilla luciferase); format: cell-based, HCV genotype 1b (Con 1); conditions: Hepatitis C virus, genotype 1b replicon
Outline: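 Subgenomic replicon cells expressing Renilla luciferase (1b Con1; 1a and 2a lines by the same method) seeded at 7000 cells/well (5000 for 2a) without G418, exposed to 3-fold compound dilutions for 72 h at 37 °C. Luciferase activity measured; EC50 by non-linear regression.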

[5] = tested on: genotype 1b (Con 1) subgenomic replicon cell line; assay: Combination studies in replicon cells (MacSynergy II); format: cell-based, HCV genotype 1b (Con 1)
Experimental: as §1, with “synergy” for “antiviral activity”
For assay, cells were seeded at a density of 7000 cells/well into 96 well tissue culture trays in culture media lacking G418. The compound concentration that reduced luciferase activity by 50% (EC50) was determined independently for each compound and used to set the range of concentrations for the combination experiments. […] The ratio of the 2 compounds tested remained fixed across the titration range. […] After 72 hours incubation at 37° C. and 5% CO2, Renilla luciferase activity was quantified via the Promega Renilla Luciferase Assay System.
Results were analysed and levels of synergy assessed via generation of 3D synergy plots using MacSynergy™ II (Prichard, M. N., K. R. Aseltine, and C. Shipman, Jr. 1993. MacSynergy II. Version 1.0. User's manual. University of Michigan, Ann Arbor.). […] Compound 175 was selected as a representative example of the compounds of the invention for synergistic studies.

[6] = 1b (BK) NS5bΔ21, 33P-GTP incorporation, read-out: 1b polymerase IC50 (range class)
[7] = genotype 1b, read-out: 1b NS5b polymerase IC50
[8] = 72 hours, luciferase, read-out: genotype 1b EC50 (range class)

Chain of 1b (BK) NS5bΔ21 (P26663 2420-2989): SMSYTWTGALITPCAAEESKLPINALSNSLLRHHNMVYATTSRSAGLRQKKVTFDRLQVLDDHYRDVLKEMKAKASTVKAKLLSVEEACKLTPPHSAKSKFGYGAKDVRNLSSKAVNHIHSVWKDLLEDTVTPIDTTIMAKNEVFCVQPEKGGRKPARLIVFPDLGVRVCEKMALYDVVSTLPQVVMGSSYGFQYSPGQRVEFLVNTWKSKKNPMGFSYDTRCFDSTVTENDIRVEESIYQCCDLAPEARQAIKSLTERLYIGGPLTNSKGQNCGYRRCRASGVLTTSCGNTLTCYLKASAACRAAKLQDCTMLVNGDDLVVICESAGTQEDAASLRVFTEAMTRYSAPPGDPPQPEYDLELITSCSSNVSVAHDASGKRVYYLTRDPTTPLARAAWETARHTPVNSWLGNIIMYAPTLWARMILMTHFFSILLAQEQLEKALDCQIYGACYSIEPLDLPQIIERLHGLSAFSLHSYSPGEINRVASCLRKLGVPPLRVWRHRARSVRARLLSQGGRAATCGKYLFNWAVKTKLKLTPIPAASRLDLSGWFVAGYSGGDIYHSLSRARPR
Chain of genotype 3a (VRL-69) NS5bΔ21 polymerase (Q81258 whole entry, looked up, stated change not applied): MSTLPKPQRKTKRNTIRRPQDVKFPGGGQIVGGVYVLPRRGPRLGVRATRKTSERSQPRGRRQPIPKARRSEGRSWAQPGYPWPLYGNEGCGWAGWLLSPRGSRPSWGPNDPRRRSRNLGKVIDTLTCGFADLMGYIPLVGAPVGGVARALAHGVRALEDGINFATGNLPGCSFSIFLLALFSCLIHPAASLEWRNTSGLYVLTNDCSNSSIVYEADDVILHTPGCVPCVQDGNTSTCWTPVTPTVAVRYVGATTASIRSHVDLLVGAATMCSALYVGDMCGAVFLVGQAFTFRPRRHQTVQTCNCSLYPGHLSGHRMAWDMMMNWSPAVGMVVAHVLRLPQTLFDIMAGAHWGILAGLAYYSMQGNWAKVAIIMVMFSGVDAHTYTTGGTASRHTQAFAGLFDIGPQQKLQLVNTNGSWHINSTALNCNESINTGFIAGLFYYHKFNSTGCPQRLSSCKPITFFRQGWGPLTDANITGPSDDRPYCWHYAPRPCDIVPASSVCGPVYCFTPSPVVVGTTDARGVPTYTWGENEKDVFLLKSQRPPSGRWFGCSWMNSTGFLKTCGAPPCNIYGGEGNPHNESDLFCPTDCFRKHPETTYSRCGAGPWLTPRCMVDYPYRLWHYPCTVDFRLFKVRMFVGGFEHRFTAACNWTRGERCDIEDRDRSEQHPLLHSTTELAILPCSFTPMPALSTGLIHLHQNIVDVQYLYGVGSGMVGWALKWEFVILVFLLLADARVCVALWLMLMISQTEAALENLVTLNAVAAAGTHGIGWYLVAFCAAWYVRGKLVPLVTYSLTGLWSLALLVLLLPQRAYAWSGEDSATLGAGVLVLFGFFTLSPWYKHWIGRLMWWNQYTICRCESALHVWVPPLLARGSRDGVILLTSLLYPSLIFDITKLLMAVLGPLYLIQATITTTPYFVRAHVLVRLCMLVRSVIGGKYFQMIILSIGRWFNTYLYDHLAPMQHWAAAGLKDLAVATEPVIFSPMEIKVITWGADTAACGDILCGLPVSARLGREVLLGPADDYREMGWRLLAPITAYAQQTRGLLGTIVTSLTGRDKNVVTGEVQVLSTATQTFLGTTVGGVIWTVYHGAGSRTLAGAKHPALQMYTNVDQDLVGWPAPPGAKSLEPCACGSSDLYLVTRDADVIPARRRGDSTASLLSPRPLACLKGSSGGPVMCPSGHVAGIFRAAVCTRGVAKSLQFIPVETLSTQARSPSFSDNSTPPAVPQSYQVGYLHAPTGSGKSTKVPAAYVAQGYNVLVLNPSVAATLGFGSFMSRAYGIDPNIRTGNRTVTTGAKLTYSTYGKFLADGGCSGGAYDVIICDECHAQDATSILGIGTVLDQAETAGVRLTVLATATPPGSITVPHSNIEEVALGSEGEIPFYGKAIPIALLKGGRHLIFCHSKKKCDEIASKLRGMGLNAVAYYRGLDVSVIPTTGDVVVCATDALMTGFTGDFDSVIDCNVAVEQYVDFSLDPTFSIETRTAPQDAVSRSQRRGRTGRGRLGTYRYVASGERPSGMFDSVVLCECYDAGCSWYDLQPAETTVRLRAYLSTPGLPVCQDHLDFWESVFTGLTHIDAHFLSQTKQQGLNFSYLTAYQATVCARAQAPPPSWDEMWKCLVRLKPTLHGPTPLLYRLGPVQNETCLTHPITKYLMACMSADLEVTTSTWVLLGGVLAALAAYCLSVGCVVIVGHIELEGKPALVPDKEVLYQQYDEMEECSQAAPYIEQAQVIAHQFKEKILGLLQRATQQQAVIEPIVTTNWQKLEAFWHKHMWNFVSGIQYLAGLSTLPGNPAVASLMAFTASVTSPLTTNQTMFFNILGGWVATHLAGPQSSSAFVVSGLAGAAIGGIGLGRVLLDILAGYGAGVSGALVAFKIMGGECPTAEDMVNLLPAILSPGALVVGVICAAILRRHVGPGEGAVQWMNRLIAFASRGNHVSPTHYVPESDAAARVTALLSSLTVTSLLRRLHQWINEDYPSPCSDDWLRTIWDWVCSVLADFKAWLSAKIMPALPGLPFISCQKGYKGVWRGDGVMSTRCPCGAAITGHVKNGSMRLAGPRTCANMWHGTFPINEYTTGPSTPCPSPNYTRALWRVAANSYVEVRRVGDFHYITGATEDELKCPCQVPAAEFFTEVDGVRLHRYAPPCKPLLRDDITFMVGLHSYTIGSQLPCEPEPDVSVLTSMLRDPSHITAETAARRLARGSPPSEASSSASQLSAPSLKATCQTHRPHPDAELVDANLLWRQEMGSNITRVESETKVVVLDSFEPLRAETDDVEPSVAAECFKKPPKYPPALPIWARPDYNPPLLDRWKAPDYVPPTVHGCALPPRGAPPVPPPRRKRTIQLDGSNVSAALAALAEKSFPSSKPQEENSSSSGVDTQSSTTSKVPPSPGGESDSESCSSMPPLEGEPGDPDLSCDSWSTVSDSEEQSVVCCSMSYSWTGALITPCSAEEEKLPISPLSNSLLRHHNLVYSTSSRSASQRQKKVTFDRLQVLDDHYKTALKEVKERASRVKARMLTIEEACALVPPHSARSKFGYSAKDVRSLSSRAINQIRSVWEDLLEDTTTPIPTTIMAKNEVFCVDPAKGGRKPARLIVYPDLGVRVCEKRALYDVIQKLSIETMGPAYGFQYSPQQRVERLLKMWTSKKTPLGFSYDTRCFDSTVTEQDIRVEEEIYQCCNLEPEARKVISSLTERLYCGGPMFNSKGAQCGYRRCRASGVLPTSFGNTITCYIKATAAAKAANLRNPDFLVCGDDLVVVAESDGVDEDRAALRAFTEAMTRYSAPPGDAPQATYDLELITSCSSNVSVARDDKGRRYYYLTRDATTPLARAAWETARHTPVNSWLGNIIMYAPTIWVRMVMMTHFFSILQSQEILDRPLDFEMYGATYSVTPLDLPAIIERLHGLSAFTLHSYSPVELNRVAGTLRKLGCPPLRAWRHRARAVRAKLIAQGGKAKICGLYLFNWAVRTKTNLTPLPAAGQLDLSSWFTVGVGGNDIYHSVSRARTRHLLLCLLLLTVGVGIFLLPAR

Row | SMILES | EC50 [1] | EC50 [2] | IC50 [3] | IC50 (1b (BK) NS5bΔ21; [6]) | IC50 (1b (BK) NS5bΔ21; [7]) | EC50 [4, 8] | EC50 ([4]; read-out: Replicon 1b EC50) | synergy in combination with a nucleoside NS5b inhibitor ([5]; with 4-amino-7-(2-C-methyl-β-D-ribofuranosyl)-pyrrolo[2,1-f][1,2,4]triazine, FIG. 1, 95% confidence intervals) | synergy in combination with an NS5a inhibitor ([5]; with BMS-790052, daclatasvir, FIG. 3, 95% confidence intervals) | synergy in combination with a NS3/4a protease inhibitor ([5]; with VX-950, telaprevir, FIG. 2, 95% confidence intervals)
1 | CCOC(=O)CCC(=O)NCCCN(c1cc2nn(-c3ccc(Br)cc3)c(C(=O)NC)c2cc1C1CC1)S(C)(=O)=O [Compound 164] | 0.01 µM | 0.62 µM | 0.04 µM | < 0.99 µM | 0.52 µM | < 0.99 µM | 0.21 µM |  |  | 
2 | CNC(=O)c1c2cc(C3CC3)c(N(CCCNC(=O)c3ccccc3)S(C)(=O)=O)cc2nn1-c1ccc(Br)cc1 [Compound 166] | 0.02 µM | 0.34 µM | 0.03 µM | < 0.99 µM | 0.16 µM | < 0.99 µM | 0.02 µM |  |  | 
3 | CCCC(=O)NCCCN(c1cc2nn(-c3ccc(Br)cc3)c(C(=O)NC)c2cc1C1CC1)S(C)(=O)=O [Compound 171] | 0.28 µM | 4.26 µM | 0.04 µM | < 0.99 µM | 0.31 µM | < 0.99 µM | 0.21 µM |  |  | 
4 | CNC(=O)c1c2cc(C3CC3)c(N(CCCNC(=O)C(F)(F)F)S(C)(=O)=O)cc2nn1-c1ccc(Br)cc1 [Compound 172] | 0.06 µM | 1.83 µM | 0.04 µM | < 0.99 µM | 0.11 µM | < 0.99 µM | 0.06 µM |  |  | 
5 | CCN(c1cc2nn(-c3ccc(Cl)cc3)c(C(=O)NC)c2cc1C1CC1)S(C)(=O)=O [Compound 175] | 0.26 µM | 0.08 µM | 0.03 µM | < 0.99 µM | 0.1 µM | < 0.99 µM | 0.06 µM | statistically significant synergy | statistically significant synergy | statistically significant synergy
6 | CNC(=O)c1c2cc(C3CC3)c(N(CCCNC(=O)c3ccnc(OC)c3)S(C)(=O)=O)cc2nn1-c1ccc(Br)cc1 [Compound 177] | 0.11 µM | 0.31 µM | 0.06 µM | < 0.99 µM | 0.28 µM | < 0.99 µM | 0.07 µM |  |  | 
7 | CNC(=O)c1c2cc(C3CC3)c(N(CCCNC(=O)c3nonc3C)S(C)(=O)=O)cc2nn1-c1ccc(Br)cc1 [Compound 179] | 0.18 µM | 0.52 µM | 0.03 µM | < 0.99 µM | 0.26 µM | < 0.99 µM | 0.07 µM |  |  | 
8 | CNC(=O)c1c2cc(C3CC3)c(N(CCCNC(=O)c3cnn(C)c3C)S(C)(=O)=O)cc2nn1-c1ccc(Br)cc1 [Compound 180] | 0.57 µM | 1.11 µM | 0.05 µM | < 0.99 µM | 0.37 µM | < 0.99 µM | 0.14 µM |  |  | 
9 | CNC(=O)c1c2cc(C3CC3)c(N(CCCNC(=O)c3cccc(OC)c3F)S(C)(=O)=O)cc2nn1-c1ccc(Br)cc1 [Compound 189] | 0.08 µM | 0.23 µM | 0.05 µM | < 0.99 µM | 0.13 µM | < 0.99 µM | 0.03 µM |  |  | 
10 | CNC(=O)c1c2cc(C3CC3)c(N(CCCNC(=O)c3cccnc3OC)S(C)(=O)=O)cc2nn1-c1ccc(Br)cc1 [Compound 190] | 0.09 µM | 0.43 µM | 0.04 µM | < 0.99 µM | 0.83 µM | < 0.99 µM | 0.07 µM |  |  | 
11 | CNC(=O)c1c2cc(C3CC3)c(N(CCCNC(=O)c3cccnc3)S(C)(=O)=O)cc2nn1-c1ccc(Br)cc1 [Compound 191] | 0.4 µM | 2.59 µM | 0.02 µM | < 0.99 µM | 0.43 µM | < 0.99 µM | 0.19 µM |  |  | 
12 | CNC(=O)c1c2cc(C3CC3)c(N(CCCN3CCOCC3)S(C)(=O)=O)cc2nn1-c1ccc(Br)cc1 [Compound 200] | 0.65 µM | 1.05 µM | 0.04 µM | < 0.99 µM | 0.22 µM | < 0.99 µM | 0.17 µM |  |  | 
13 | CNC(=O)c1c2cc(C3CC3)c(N(CCCNC(=O)[C@H]3CCC[C@@H]3C(=O)OC)S(C)(=O)=O)cc2nn1-c1ccc(Br)cc1 [Compound 216] | 0.13 µM | 0.68 µM | 0.02 µM | < 0.99 µM | 0.18 µM | < 0.99 µM | 0.04 µM |  |  | 
14 | CNC(=O)c1c2cc(C3CC3)c(N(C)S(C)(=O)=O)cc2nn1-c1ccc(Br)cc1 [Compound 234] | 0.24 µM | 0.42 µM | 0.02 µM | < 0.99 µM | 0.14 µM | < 0.99 µM | 0.08 µM |  |  | 
15 | CNC(=O)c1c2cc(C3CC3)c(N(CCC3COC(C)(C)OC3)S(C)(=O)=O)cc2nn1-c1ccc(Cl)cc1 [Compound 235] | 0.28 µM | 0.14 µM | 0.03 µM | < 0.99 µM | 0.09 µM | < 0.99 µM | 0.04 µM |  |  | 
